The results in this text go back to ChEMBL document CHEMBL4033800, “Further Developments of the Phenyl-Pyrrolyl Pentane Series of Nonsteroidal Vitamin D Receptor Modulators as Anticancer Agents” (J Med Chem, 2018).

pIC50: −log10 of the molar value. Bounds are passed on as bounds.

One experiment relates to MCF7. Description: Antiproliferative activity against human MCF7 cells after 48 hrs by MTT assay. In kind it is functional, cell-based. The settings on record: MCF7, 48 h.
The next experiment has as its system Caco-2. Put plainly: Antiproliferative activity against human Caco2 cells after 48 hrs by MTT assay. In kind it is functional, cell-based. Particulars: Caco-2, 48 h. For orientation: Tetrazolium assays rely on reduction of a dye to a coloured formazan, in cell work by metabolically active cells.
Another experiment deals with L02. Put plainly: Antiproliferative activity against human L02 cells after 48 hrs by MTT assay. In kind it is cell-based. Particulars: L02, 48 h.
The next experiment deals with PC-3. Description: Antiproliferative activity against human PC3 cells after 48 hrs by MTT assay. In kind it is functional, cell-based. Particulars: PC-3, 48 h.
The next experiment concerns HepG2. Description: Antiproliferative activity against human HepG2 cells after 48 hrs by MTT assay. In kind it is functional, cell-based. Particulars: HepG2, 48 h.

Regarding `CCn1c(C(=O)N(CCC#N)CCC#N)ccc1C(CC)(CC)c1ccc(OCCC(O)(CC)CC)c(C)c1`, the pIC50 (as a rule, the negative decadic logarithm of the IC50, by convention in mol/L) with MCF7 is less than 4.30; in the experiment on Caco-2, less than 4.30; in the experiment with L02, 4.42; in the experiment with PC-3, less than 4.30; in the experiment with HepG2 it was 4.33.

Consider `CCn1c(C(=O)NCCN(C)C)ccc1C(CC)(CC)c1ccc(OCCC(O)(CC)CC)c(C)c1`, for which the pIC50 in the experiment on MCF7 is 6.37; in the experiment with Caco-2, 5.94; in the experiment on L02, 6.00; in the experiment on PC-3, 6.06; with HepG2, 6.62.

In the case of `CCn1c(C(=O)Oc2ccc(CC(=O)OC)cc2)ccc1C(CC)(CC)c1ccc(OCCC(O)(CC)CC)c(C)c1`, the pIC50 in the experiment with MCF7, with Caco-2, with L02, in the experiment with PC-3 and with HepG2 was less than 4.30 each time.

`CCn1c(C(=O)Nc2cccc(C(F)(F)F)c2)ccc1C(CC)(CC)c1ccc(OCCC(O)(CC)CC)c(C)c1`: the pIC50 with MCF7 was less than 4.30; in the experiment on Caco-2 it was less than 4.30; in the experiment with L02, less than 4.30; in the experiment on PC-3, 4.62; with HepG2, less than 4.30.

As for `CCn1c(C(=O)N(C)CCO)ccc1C(CC)(CC)c1ccc(OCCC(O)(CC)CC)c(C)c1`, the pIC50 in the experiment with MCF7 is 5.54; in the experiment with Caco-2, 7.13; in the experiment with L02, 5.69; in the experiment with PC-3, 5.51; in the experiment with HepG2, 6.29.

On to `CCn1c(C(=O)NC(C)CO)ccc1C(CC)(CC)c1ccc(OCCC(O)(CC)CC)c(C)c1` (stereo not given), for which the pIC50 was 4.90 in the experiment on MCF7; less than 4.30 in the experiment with Caco-2; 5.32 in the experiment on L02; 5.10 with PC-3; 4.37 in the experiment with HepG2.

As to `CCOC(=O)CN(C)C(=O)c1ccc(C(CC)(CC)c2ccc(OCCC(O)(CC)CC)c(C)c2)n1CC`, the pIC50 in the experiment with MCF7 is 5.49; in the experiment with Caco-2 it was 4.52; with L02, 5.70; in the experiment on PC-3, 5.15; in the experiment with HepG2 it was 4.60.

For `CCn1c(C(=O)NC(CC(=O)O)C(=O)OC)ccc1C(CC)(CC)c1ccc(OCCC(O)(CC)CC)c(C)c1` (stereo not given), the pIC50 with MCF7 is 4.99; in the experiment on Caco-2 it was 4.60; in the experiment on L02, 5.12; with PC-3, 4.95; with HepG2, 4.97.

`CCn1c(C(=O)NC(CO)CCO)ccc1C(CC)(CC)c1ccc(OCCC(O)(CC)CC)c(C)c1` (stereo not given): the pIC50 with MCF7 is 4.50; in the experiment with Caco-2, 4.40; in the experiment with L02, 5.52; in the experiment on PC-3, 5.06; in the experiment on HepG2 it was 4.61.

For `C=CCN(C)C(=O)c1ccc(C(CC)(CC)c2ccc(OCCC(O)(CC)CC)c(C)c2)n1CC`, the pIC50 with MCF7 was less than 4.30; in the experiment on Caco-2 it was less than 4.30; in the experiment on L02, 5.92; in the experiment on PC-3 it was 4.89; in the experiment with HepG2 it was less than 4.30.

With `CCn1c(C(=O)Nc2ccc(OC(F)(F)F)cc2)ccc1C(CC)(CC)c1ccc(OCCC(O)(CC)CC)c(C)c1`, the pIC50 in the experiment with MCF7, in the experiment with Caco-2, with L02, with PC-3 and with HepG2 was less than 4.30 in each case.

On to `CCn1c(C(=O)NC(C)C(=O)O)ccc1C(CC)(CC)c1ccc(OCCC(O)(CC)CC)c(C)c1` (stereo not given), for which the pIC50 in the experiment on MCF7 is 4.71; with Caco-2, 4.33; with L02 it was 5.39; with PC-3, 4.93; in the experiment with HepG2 it was 5.76.

Regarding `CCn1c(C(=O)NCCN)ccc1C(CC)(CC)c1ccc(OCCC(O)(CC)CC)c(C)c1`, the pIC50 in the experiment on MCF7 is 6.17; in the experiment on Caco-2, 5.76; in the experiment on L02 it was 5.53; in the experiment on PC-3 it was 5.62; in the experiment on HepG2, 5.80.

Consider `CCC(C)C(NC(=O)c1ccc(C(CC)(CC)c2ccc(OCCC(O)(CC)CC)c(C)c2)n1CC)C(=O)OC` (stereo not given), for which the pIC50 in the experiment on MCF7, in the experiment on Caco-2, in the experiment on L02, in the experiment with PC-3 and in the experiment on HepG2 was less than 4.30 throughout.
